Reference: ChEMBL document CHEMBL4270563, “Neurogenic and neuroprotective donepezil-flavonoid hybrids with sigma-1 affinity and inhibition of key enzymes in Alzheimer's disease” (Eur J Med Chem, 2018)
Activity calls are given as the source filed them. The rule behind the calls is not given here.

Tests used:
Acetylcholinesterase [1] = target: T1, Acetylcholinesterase (Homo sapiens, UniProt P22303); assay: Inhibition of recombinant human AChE expressed in HEK293 cells using acetylthiocholine iodide as substrate pretreated for 5 mins followed by substrate addition and measured for 5 mins by Ellman's method
[2] = target: T2, Amine oxidase [flavin-containing] B (Homo sapiens, UniProt P27338); assay: biochemical; format: cell-based
T2 sequence (P27338 whole entry): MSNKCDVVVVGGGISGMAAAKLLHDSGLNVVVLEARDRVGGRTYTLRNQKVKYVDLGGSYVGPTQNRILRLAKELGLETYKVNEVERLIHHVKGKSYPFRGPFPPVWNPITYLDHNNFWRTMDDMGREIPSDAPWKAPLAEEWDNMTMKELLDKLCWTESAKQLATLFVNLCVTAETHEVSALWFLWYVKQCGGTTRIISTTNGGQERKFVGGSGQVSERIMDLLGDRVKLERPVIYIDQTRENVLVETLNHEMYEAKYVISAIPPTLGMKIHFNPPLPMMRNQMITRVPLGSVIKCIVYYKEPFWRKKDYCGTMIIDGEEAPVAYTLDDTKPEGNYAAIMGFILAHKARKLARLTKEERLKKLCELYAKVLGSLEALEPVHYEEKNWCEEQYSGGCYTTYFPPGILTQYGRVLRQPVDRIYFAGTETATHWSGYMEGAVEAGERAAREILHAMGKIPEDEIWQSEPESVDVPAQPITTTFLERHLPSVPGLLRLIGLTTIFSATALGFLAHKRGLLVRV
Description: Inhibition of recombinant human MAO-B expressed in baculovirus infected BTI insect cells using p-tyramine as substrate pretreated for 15 mins followed by substrate addition by horse-radish peroxidase/amplex red-based fluorescence method

Homo sapiens = species: Homo sapiens; assay: Selectivity index, ratio of IC50 for human serum BuChE to IC50 for recombinant human AChE expressed in HEK293 cells; format: cell-based
[3] = target: T3, Amine oxidase [flavin-containing] A (Homo sapiens, UniProt P21397); assay: Inhibition of recombinant human MAO-A expressed in baculovirus infected BTI insect cells using p-tyramine as substrate pretreated for 15 mins followed by substrate addition by horse-radish peroxidase/amplex red-based fluorescence method
T3 sequence (P21397 whole entry): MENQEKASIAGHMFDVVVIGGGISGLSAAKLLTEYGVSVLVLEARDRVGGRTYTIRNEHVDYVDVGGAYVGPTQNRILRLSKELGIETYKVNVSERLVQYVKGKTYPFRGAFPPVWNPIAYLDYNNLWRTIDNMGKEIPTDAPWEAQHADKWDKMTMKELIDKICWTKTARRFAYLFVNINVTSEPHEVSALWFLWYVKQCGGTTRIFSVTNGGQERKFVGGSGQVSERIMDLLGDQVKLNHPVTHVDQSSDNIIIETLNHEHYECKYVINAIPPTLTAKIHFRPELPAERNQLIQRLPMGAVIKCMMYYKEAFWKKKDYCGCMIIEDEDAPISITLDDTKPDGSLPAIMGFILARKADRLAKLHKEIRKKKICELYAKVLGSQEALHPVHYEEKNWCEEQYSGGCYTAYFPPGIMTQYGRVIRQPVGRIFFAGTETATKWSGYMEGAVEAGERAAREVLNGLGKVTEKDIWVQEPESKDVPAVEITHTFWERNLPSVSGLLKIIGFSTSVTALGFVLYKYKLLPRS

in vitro = details: PAMPA, pH 7.4
Description: Permeability of the compound in pH 7.4 PBS by PAMPA-BBB assay

[4] = Selectivity ratio of Ki for displacement of [3H]DTG from sigma2 receptor in rat liver membranes to Ki for displacement of (+)-[3H]pentazocine from guinea pig brain membrane sigma1 receptor; format: cell membranes
[5] = target: T4, Polyunsaturated fatty acid 5-lipoxygenase (Homo sapiens, UniProt P09917); assay: Inhibition of human 5-lipoxygenase using arachidonic acid as substrate pretreated for 10 mins followed by substrate and ATP addition and measured after 20 mins by H2DCFDA probe based fluorescence assay
T4 sequence (P09917 whole entry): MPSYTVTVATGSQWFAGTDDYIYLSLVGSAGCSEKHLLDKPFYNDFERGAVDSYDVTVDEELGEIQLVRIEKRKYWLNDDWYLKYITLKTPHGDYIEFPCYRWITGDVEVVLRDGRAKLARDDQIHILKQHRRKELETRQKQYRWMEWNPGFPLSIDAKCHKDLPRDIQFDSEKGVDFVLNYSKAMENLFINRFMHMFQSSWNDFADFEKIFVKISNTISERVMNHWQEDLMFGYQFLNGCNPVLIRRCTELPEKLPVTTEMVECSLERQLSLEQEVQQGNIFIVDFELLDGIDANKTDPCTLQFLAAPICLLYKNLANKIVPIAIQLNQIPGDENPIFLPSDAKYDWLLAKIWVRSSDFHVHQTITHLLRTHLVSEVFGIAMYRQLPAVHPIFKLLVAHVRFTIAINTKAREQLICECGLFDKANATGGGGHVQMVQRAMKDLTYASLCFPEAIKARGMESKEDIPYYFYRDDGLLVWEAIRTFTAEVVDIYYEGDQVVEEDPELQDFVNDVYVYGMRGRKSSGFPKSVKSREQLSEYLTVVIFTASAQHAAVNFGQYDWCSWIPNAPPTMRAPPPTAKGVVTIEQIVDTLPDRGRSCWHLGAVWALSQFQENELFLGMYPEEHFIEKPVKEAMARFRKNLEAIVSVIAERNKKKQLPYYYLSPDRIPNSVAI

[6] = Antioxidant activity assessed as trolox equivalent of AAPH-induced radical scavenging activity at 10 uM pretreated for 15 mins followed by APPH challenge measured every minute for 80 mins by ORAC-FL assay; format: functional
[7] = target: T5, Sigma intracellular receptor 2 (Rattus norvegicus, UniProt Q5U3Y7); assay: Displacement of [3H]DTG from sigma2 receptor in rat liver membranes by liquid scintillation counting method; format: cell membranes, Membrane
T5 sequence (Q5U3Y7 whole entry): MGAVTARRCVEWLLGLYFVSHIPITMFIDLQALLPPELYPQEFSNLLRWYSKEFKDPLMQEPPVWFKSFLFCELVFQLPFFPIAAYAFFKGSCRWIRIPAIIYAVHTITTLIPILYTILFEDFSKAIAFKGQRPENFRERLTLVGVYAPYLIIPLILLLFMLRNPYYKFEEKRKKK

Cholinesterase = Cholinesterase (Homo sapiens, UniProt P06276); assay: Inhibition of human serum BuChE using butyrylthiocholine as substrate pretreated for 5 mins followed by substrate addition and measured for 5 mins by Ellman's method
[8] = target: Sigma non-opioid intracellular receptor 1 (Cavia porcellus, UniProt Q60492); assay: Displacement of (+)-[3H]pentazocine from guinea pig brain membrane sigma1 receptor by liquid scintillation counting method
[9] = target: T6, Polyunsaturated fatty acid 5-lipoxygenase (Homo sapiens) (UniProt P09917); assay: Inhibition of human 5-lipoxygenase at 10 uM using arachidonic acid as substrate pretreated for 10 mins followed by substrate and ATP addition and measured after 20 mins by […] probe based fluorescence assay relative to control
T6 sequence (whole entry): T4 sequence (P09917 whole entry)

Acetylcholinesterase [10] = target: T1, Acetylcholinesterase; assay: Inhibition of recombinant human AChE expressed in HEK293 cells using varying levels of acetylthiocholine iodide as substrate by Lineweaver-burk plot analysis

T1 sequence (P22303 whole entry): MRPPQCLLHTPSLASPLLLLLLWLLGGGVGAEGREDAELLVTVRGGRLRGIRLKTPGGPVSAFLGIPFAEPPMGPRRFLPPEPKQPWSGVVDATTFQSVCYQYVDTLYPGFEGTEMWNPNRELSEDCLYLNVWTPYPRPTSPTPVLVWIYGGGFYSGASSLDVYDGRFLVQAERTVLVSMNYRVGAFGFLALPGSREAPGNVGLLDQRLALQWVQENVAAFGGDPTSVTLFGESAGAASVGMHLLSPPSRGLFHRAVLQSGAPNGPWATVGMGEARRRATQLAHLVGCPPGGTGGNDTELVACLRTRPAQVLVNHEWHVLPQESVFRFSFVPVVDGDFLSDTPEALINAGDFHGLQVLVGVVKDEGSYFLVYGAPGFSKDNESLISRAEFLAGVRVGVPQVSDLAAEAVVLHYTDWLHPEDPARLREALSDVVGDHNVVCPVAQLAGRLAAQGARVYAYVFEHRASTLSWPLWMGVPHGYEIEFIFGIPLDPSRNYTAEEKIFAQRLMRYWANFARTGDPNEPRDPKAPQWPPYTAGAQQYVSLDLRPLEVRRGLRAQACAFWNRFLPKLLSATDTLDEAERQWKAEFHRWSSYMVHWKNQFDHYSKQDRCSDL
Sequence of Cholinesterase (P06276 whole entry): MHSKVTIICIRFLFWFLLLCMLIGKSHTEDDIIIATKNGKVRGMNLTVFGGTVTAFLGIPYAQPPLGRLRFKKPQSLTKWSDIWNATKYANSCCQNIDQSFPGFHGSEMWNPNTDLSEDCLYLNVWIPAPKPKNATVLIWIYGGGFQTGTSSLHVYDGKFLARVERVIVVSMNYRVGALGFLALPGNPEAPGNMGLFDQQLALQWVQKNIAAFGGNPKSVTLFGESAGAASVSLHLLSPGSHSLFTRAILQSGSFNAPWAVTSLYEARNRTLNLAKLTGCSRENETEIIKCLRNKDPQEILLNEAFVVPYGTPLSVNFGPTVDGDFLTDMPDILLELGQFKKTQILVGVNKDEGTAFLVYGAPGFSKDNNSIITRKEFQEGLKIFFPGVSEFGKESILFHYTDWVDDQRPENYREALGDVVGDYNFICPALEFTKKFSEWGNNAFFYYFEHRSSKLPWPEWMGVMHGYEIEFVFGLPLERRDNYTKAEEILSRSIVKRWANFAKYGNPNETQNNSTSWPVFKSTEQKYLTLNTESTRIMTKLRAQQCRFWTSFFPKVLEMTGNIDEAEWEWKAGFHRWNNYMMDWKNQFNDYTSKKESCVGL
Sequence of Sigma non-opioid intracellular receptor 1 (Q60492 whole entry): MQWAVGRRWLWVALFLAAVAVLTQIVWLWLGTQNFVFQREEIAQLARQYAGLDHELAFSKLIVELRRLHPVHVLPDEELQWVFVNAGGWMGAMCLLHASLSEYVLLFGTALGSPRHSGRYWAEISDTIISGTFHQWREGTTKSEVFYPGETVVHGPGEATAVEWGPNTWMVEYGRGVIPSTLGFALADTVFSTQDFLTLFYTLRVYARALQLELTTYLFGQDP

| SMILES | IC50 (Acetylcholinesterase [1]) [µM] | IC50 [2] [µM] | Ratio IC50 (Homo sapiens) | IC50 [3] [µM] | Papp (in vitro) [×10⁻⁶ cm/s] | Ratio Ki [4] | IC50 [5] [µM] | Activity [6] | Ki [7] [µM] | IC50 (Cholinesterase) [µM] | Ki [8] [µM] | inhibition [9] [%] | Ki (Acetylcholinesterase [10]) [µM] |
| --- | --- | --- | --- | --- | --- | --- | --- | --- | --- | --- | --- | --- | --- |
| COc1ccc2c(=O)cc(C(=O)NCCC3CCN(Cc4ccccc4)CC3)[nH]c2c1 | 0.45 | 56.4 | > 22 | 72.7 | 10.9 | 8 | > 100 | inactive | 0.376 | > 10 | 0.0452 | 31 | – |
| COc1cc2[nH]c(C(=O)NCCC3CCN(Cc4ccccc4)CC3)cc(=O)c2cc1OC | 0.17 | > 100 | > 59 | > 100 | 5.3 | 13 | > 100 | inactive | 0.487 | > 10 | 0.0363 | 31 | 0.06 |
| O=C(NC1CCN(Cc2ccccc2)CC1)c1cc(=O)c2cc(O)ccc2o1 | 2.36 | – | > 4.2 | – | 1.9 | – | > 100 | – | – | > 10 | – | 48 | – |
| COc1cc2nc(C(=O)NCCC3CCN(Cc4ccccc4)CC3)cc(OC)c2cc1OC | 0.62 | – | 14 | – | 13 | – | – | – | – | 8.79 | – | – | – |
| COc1ccc2c(=O)cc(C(=O)NCCC3CCN(Cc4ccccc4)CC3)oc2c1 | 0.033 | > 100 | 300 | > 100 | 7.6 | – | > 100 | – | – | 9.9 | – | 31 | – |
| COc1cccc2c(=O)cc(C(=O)NCCC3CCN(Cc4ccccc4)CC3)[nH]c12 | 1.64 | 71.6 | > 6.1 | 52.4 | 15.3 | – | > 100 | inactive | – | > 10 | – | 47 | – |
| COc1cc2oc(C(=O)NCC3CCN(Cc4ccccc4)CC3)cc(=O)c2cc1OC | 1.46 | – | > 6.8 | – | – | – | > 100 | – | – | > 10 | – | 45 | – |
| COc1ccc2[nH]c(C(=O)NCCC3CCN(Cc4ccccc4)CC3)cc(=O)c2c1 | 0.88 | > 100 | > 11 | > 100 | 12 | 64 | > 100 | inactive | 0.459 | > 10 | 0.0072 | 31 | – |
| COc1ccc2oc(C(=O)OCC3CCN(Cc4ccccc4)CC3)cc(=O)c2c1 | 7.49 | – | > 1.3 | – | 6.1 | – | – | – | – | > 10 | – | – | – |
| COc1cc2oc(C(=O)NCCCC3CCN(Cc4ccccc4)CC3)cc(=O)c2cc1OC | 0.11 | > 100 | > 91 | > 100 | 5 | – | > 100 | inactive | – | > 10 | – | 48 | 0.021 |
| O=C(NCCC1CCN(Cc2ccccc2)CC1)c1cc(=O)c2ccccc2o1 | 0.11 | – | 46 | – | 6.7 | – | > 100 | – | – | 5.09 | – | 24 | 0.057 |
| COc1ccc2oc(C(=O)NCCCC3CCN(Cc4ccccc4)CC3)cc(=O)c2c1 | 0.37 | > 100 | 16 | > 100 | 10.6 | – | 82.4 | inactive | – | 5.8 | – | – | – |
| COc1cccc2oc(C(=O)NCCC3CCN(Cc4ccccc4)CC3)cc(=O)c12 | 0.87 | – | > 12 | – | – | – | – | – | – | > 10 | – | – | – |
| COc1ccc2oc(C(=O)NCCC3CCN(Cc4ccccc4)CC3)cc(=O)c2c1 | 0.17 | > 100 | 38 | > 100 | 10 | – | > 100 | – | – | 6.5 | – | 33 | – |
| COc1cc2oc(C(=O)OCCC3CCN(Cc4ccccc4)CC3)cc(=O)c2cc1OC | 0.056 | – | – | – | – | – | – | – | – | > 10 | – | – | 0.011 |
| COc1cc(OC)c2c(=O)cc(C(=O)NCCC3CCN(Cc4ccccc4)CC3)oc2c1 | 0.32 | – | 20 | – | 8.8 | – | – | – | – | 6.3 | – | – | – |
| COc1ccc2oc(C(=O)NCC3CCN(Cc4ccccc4)CC3)cc(=O)c2c1 | 3.61 | – | > 2.8 | – | 6.8 | – | – | – | – | > 10 | – | – | – |
